# Reference: US20050049174A1, “Method and substance for facilitating weaning, reducing morbidity and reducing mortality in cardiac surgeries involving extra-corporal circulation” (priority 2003, published 2005)
# “Also recorded” adds a separate entry of the source. Read-outs that look alike come from different tables or passages of the source. Marks after values point to notes of the source that are not given here.
# Key:
# cardiac surgery patients = settings: cited from earlier work; for Result: hemodynamic effects, amrinone vs milrinone: n 44, elective cardiac surgery, bolus amrinone 0.75 mg/kg or milrinone 25 μg/kg
# [1] = intravenous; animal studies; cited from earlier work
# [2] = tested on: heart transplant candidate; settings: inhaled prostacyclin group; cited from earlier work
# [3] = tested on: person operated under cardiopulmonary bypass; experiment: inhaled prostacyclin at weaning from bypass in a person; assay type: in vivo, human; settings: weaned with inhaled prostacyclin (75 μg)
# Description: In another case, a person was operated for a third time under cardiopulmonary bypass. […] Pre-operatively, they had abnormal right ventricular diastolic function with a lower systolic or S wave on the hepatic venous Doppler signal. After bypass (duration 157 min), they were weaned with inhaled prostacyclin (75 μg) and they left the operating room with noradrenaline at 2.5 μg/min and nitroglycerine at 0.4 μg/kg/min.
# [4] = tested on: patient, mitral valve and tricuspid valve repair; experiment: inhaled prostacyclin prior to extra-corporal circulation in a patient; assay type: in vivo, human
# From the text: This is to be contrasted with changes observed in Doppler hepatic venous flow after inhaled prostacyclin in a patient scheduled to undergo mitral valve and tricuspid valve repair. […] This was associated with a reduction in mean pulmonary artery pressure from 36 to 29 mmHg, pulmonary vascular resistance index from 589 to 267 dynes.s/cm^5/m^2 and an increase in cardiac index from 1.9 to 2.4 L/min/m^2. Heart rate and mean arterial pressure decreased respectively from 63 to 52 beats/min and from 76 to 64 mmHg.
# [5] = tested on: porcine subjects undergoing cardiopulmonary bypass
# [6] = tested on: rings of porcine pulmonary artery with endothelium; experiment: vascular reactivity studies in organ chambers after cardiopulmonary bypass; assay type: in vivo, Landrace swine; settings: for KCL: amplitude of the contraction to KCl (60 mmol/L) / Dose PE: concentration of PE used to obtain 50% of contraction to KCl: mean +/- SEM
# Description: After 60 minutes of reperfusion, swine were sacrificed and pulmonary arteries harvested. After contraction to phenylephrine, pulmonary arteries endothelium-dependent relaxations to bradykinin (Gq coupled) and acetylcholine (Gi coupled) were studied in standard organ chamber experiments.
# Less than 10 minutes after “en bloc” excision, the heart was removed and the primary pulmonary artery was dissected. Branches of second degree pulmonary arteries were isolated and dissected free of connective and adventitial tissue and divided into rings (4 mm wide; 16 rings per animal). All rings were placed in organ chambers (Emka technologies Inc, Paris, France) filled with 20 mL modified Krebs-bicarbonate solution continuously heated at 37° C. and oxygenated with a carbogen mixture (95% O2 and 5% CO2). The rings were suspended between 2 metal stirrups with the upper 1 connected to an isometric force transducer connected to a signal amplifier and then allowed to stabilize for 30 minutes. Data were collected with a biological signal data acquisition software (IOX 1.700; Emka technologies Inc, Paris, France). Each arterial ring was stretched to the optimal point of its active length-tension curve (3.5 g) as determined by measuring the contraction to potassium chloride (KCl) 60 mmol/L at different levels of stretch (data not shown). The maximal contraction of rings was then obtained with addition of potassium chloride (KCl 60 mmol/L). After obtention of a plateau, all baths were washed twice with modified Krebs bicarbonate solution and indomethacin ([…]; to exclude production of endogenous prostanoids) was added in each bath. After 45 minutes of stabilisation, phenylephrine (range 2 {acute over} 10-7 mol/L to 3 {acute over} 10-6 mol/L) was added to obtain a contraction averaging 50% of the maximal contraction to KCl.
# The NO-mediated relaxation pathway was studied by constructing concentration-response curves to acetylcholine (ACh, 10-9 to 10-5 mol/L; an agonist of M2 receptors coupled to Gi-proteins) and to bradykinin (BK, 10-12 to 10—6 mol/L; an agonist of B2 receptors coupled to Gq-proteins).
# At the end of the experiment, endothelium-independent relaxations were studied with the use of 10-5 mol/L sodium nitroprusside (SNP), a nitric oxide donor
# All values are expressed as the mean±standard error of the mean (SEM). Contractions to phenylephrine are expressed as a percentage of the maximal contraction to KCl (60 mmol/L). Relaxations are expressed as the percentage of the maximal contraction to phenylephrine for each ring. Two-way repeated analysis of variance (ANOVA) were performed to compare each point of the concentration-response curves between control rings and CPB rings. Student's t test for paired/unpaired observations was used for the comparison of the pulmonary artery pressures and the intravascular cAMP content. Statistical analysis was performed with the computer software S.A.S (Instr Inc. Cary, N.C., USA). A P-value less than 0.05 was considered statistically significant.
# [7] = tested on: coronary care unit patients hospitalized for an exacerbation of chronic heart failure; settings: cited from earlier work
# [8] = tested on: person in cardiogenic shock; experiment: inhaled milrinone in a person in cardiogenic shock (echocardiographic and hemodynamic monitoring); assay type: in vivo, human; settings: 5 mg milrinone through inhalation
# From the text: Finally, the cardiac index increased from 1.8 to 2.8 L.min/m^2.
# [9] = tested on: patients with pulmonary hypertension; settings: inhaled milrinone; cited from earlier work
# [10] = n 120, low CO after cardiac surgery
smiles,measurement,setting,value
CC(CCc1ccc(O)cc1)NCCc1ccc(O)c(O)c1 (stereo not drawn) [dobutamine],Result: overall comparison milrinone and dobutamine,cardiac surgery patients; [10],comparable
same,Result: increases in cardiac index,"cardiac surgery patients; n 120, low CO after cardiac surgery, dobutamine 10 to 20 μg/kg/min vs milrinone",group D had greater
CCCCC[C@H](O)/C=C/[C@@H]1[C@H]2C/C(=C/CCCC(=O)O)O[C@H]2C[C@H]1O [prostacyclin],half-life,[1],2 to 3 min
same,cardiac output increased by,[2],11%
same,vasoactive drugs in the post-operative period,[3],No vasoactive drugs were required
same,mean arterial pressure after bypass,[3]; decreased from 78,67 mmHg
same,cardiac index after bypass,[3]; increase from 2.3,3.3 L/min/m^2
same,heart rate after bypass,[3]; increased from 66,85 beats/min
same,pulmonary vascular resistance indexed after bypass,[3]; reduction from 242,121 dynes.s/cm^5/m^2
same,hepatic venous flow signal,[3]; right ventricular diastolic waveform still abnormal,did not change significantly
same,vasoactive drugs used post-operatively,[4],no vasoactive drugs used
same,difficult separation from bypass,[4]; cardiopulmonary bypass time of 138 min,no difficult separation from bypass
same,heart rate,[4]; decreased from 63,52 beats/min
same,mean arterial pressure,[4]; decreased from 76,64 mmHg
same,cardiac index,[4]; increase from 1.9,2.4 L/min/m^2
same,Doppler hepatic venous flow systolic or S wave,"[4]; negative value before, within 18 minutes",became positive and less pronounced
same,mean pulmonary artery pressure,[4]; reduction from 36,29 mmHg
same,pulmonary vascular resistance index,[4]; reduction from 589,267 dynes.s/cm^5/m^2
Cc1[nH]c(=O)c(C#N)cc1-c1ccncc1 [milrinone],systemic vascular resistance after bolus,[5]; in vivo,did not fall
same,heart rate,"[5]; in vivo, iv",increased
same,systemic vascular resistance after bolus,"[5]; in vivo, iv",important decrease
same,heart rate,"[5]; inhaled milrinone vs CPB, at 15, 45 and 75 minutes per CPB and 30 and 60 minutes post CPB, p<0.05, FIG. 6",significantly lower
same,mean arterial pressure following administration of the bolus,"[5]; inhaled milrinone, bolus of 60-90 mg/kg via nebulizer during 15 minutes preceding CPB, p<0.05, FIG. 2",significant decrease
same,KCL: amplitude of the contraction to KCl (60 mmol/L),[6]; Mil INH group,4.8 +/− 0.28
same,Dose PE: concentration of PE used to obtain 50% of contraction to KCl,"[6]; Mil INH group, p<0.01 vs intravenous milrinone, p<0.05 vs control",greater
same,Dose PE: concentration of PE used to obtain 50% of contraction to KCl,"[6]; Mil INH group, p<0.01 vs intravenous milrinone, p<0.05 vs control, listed as Mil INH","8.3 +/− 0.93*,**"
same,Dose PE: concentration of PE used to obtain 50% of contraction to KCl,[6]; Mil IV group,4.1 +/− 0.3
same,KCL: amplitude of the contraction to KCl (60 mmol/L),[6]; Mil IV group,4.0 +/− 0.3
same,endothelium-dependent relaxation to BK,"[6]; inhaled milrinone compared to all other groups, P<0.05, FIG. 10",increased relaxation; also recorded: preventive effect
same,CPB-induced decrease of endothelium-dependent relaxation to ACh,"[6]; inhaled milrinone prior to CPB, FIG. 9",completely reversed; also recorded: preventive effect
same,endothelium-dependent relaxation to BK: preventive effect on endothelial function,"[6]; intravenous milrinone, FIG. 10",not seen
same,Result: wean from bypass,"cardiac surgery patients; n 32, LVEF ≦ 35%, PCWP ≧ 20 mmHg pre-bypass, bolus 50 ug/kg, perfusion 0.5 ug/kg/min, vs 5/15 placebo",All patients with milrinone
same,"Result: hemodynamic effects, amrinone vs milrinone",cardiac surgery patients,produced similar
same,Result: overall comparison milrinone and dobutamine,cardiac surgery patients; [10],comparable
same,Result: decreases in mean pulmonary capillary wedge pressure,"cardiac surgery patients; n 120, low CO after cardiac surgery, milrinone 50 μg/kg and perfusion 0.5 μg/kg/min vs dobutamine",Group M had greater
same,median number of days hospitalized for cardiovascular causes within 60 days,[7]; intravenous milrinone vs placebo,no difference
same,in-hospital mortality,"[7]; intravenous milrinone, vs 2.3% placebo, P=0.19",3.8%
same,60-day mortality,"[7]; intravenous milrinone, vs 8.9% placebo, P=0.41",10.3%
same,right atrial pressure (RAP) after administration,[8]; decrease from 17,7 mm Hg
same,mean pulmonary arterial pressure after administration,[8]; decrease from 33,24 mm Hg
same,mean arterial pressure after administration,[8]; decrease from 92,77 mm Hg
same,heart rate after administration,[8]; increase from 72,84 beats/minutes
same,pulmonary vascular resistance,[9],reduce pulmonary vascular resistance; also recorded: lowered pulmonary vascular resistances
Nc1cc(-c2ccncc2)c[nH]c1=O [amrinone],"Result: hemodynamic effects, amrinone vs milrinone",cardiac surgery patients,produced similar
"[N]=O [NO, nitric oxide]",Result: right ventricular ejection fraction,"cardiac surgery patients; n 45, pulmonary hypertension, Group 3 40 ppm NO compared to group 1 (milrinone) and 2 (20 ppm NO)",Group 3 (40 ppm)higher right
